The subject of data set [1] is Sprague-Dawley rats. Type of data set: in vivo, rat. The note with it: for HR / MAP / RPP: CAP 0.3 mg/kg, CsA 2.5 mg/kg, V1-cal 1 mg/kg, given 5 minutes prior to reperfusion.
For data set [2], the system named is primary neonatal cardiomyocytes (PNCM). Nature of the data set: Mitochondrial membrane potential by live cell imaging (TMRE/CMXRos), normoxia. Type of data set: cell-based, rat. From the text:
• Primary Neonatal Cardiomyocyte Isolation: Rat pups 1-3 days of age were used for primary neonatal cardiomyocyte isolation as previously described (Disatnik et al., Journal of the American Heart Association, 2013. 2:e000461). • Peptide Synthesis: Peptides were synthesized using microwave chemistry on a Liberty Microwave Peptide Synthesizer (CEM Corporation) (Gross et al., Basic Research in Cardiology, 2013. 108:381). Peptides were synthesized as one polypeptide with TAT47-57 carrier in the following order: N-terminus-TAT47-57-spacer (Gly-Gly)-cargo-C-terminus. • RT PCR: Total RNA was isolated from PNCM on day 4 in culture and H9C2 cells at passages 18, 23, 24 (Ambion RNAqueous kit). To reduce DNA contamination in the preparations, the isolated total RNA was subject to precipitation with lithium chloride and DNase digestion (Ambion DNase free). cDNA was generated from mRNA using Takara Primescript cDNA synthesis kit with oligo dT primers. Previously described primers, forward: […] (SEQ ID NO:112) and reverse: […] […] The amplified PCR product was subcloned into the pCR TOPO vector (Invitrogen) and sequenced. • Quantitative PCR: cDNA from mRNA was generated from H9C2, PNCM, and heart tissues (RA, LA, RV, LV) as described above. […]

For a further data set, the system named is H9C2 cells. Kind of data set: H9C2 cell model of ischemia-reoxygenation, lactate dehydrogenase release. Type of data set: cell-based.
The test system of another data set is isolated rat hearts. Kind of data set: Isolated heart model of ischemia-reperfusion injury. The note with it: for heart rate when infused: 10 minutes prior to ischemia.
Data set [3] has as its system Sprague-Dawley rats.
Data set [4] deals with Sprague-Dawley rats. Kind of data set: In vivo rat remote conditioning (abdominal incision before LAD ischemia-reperfusion).
Data set [5] relates to Sprague-Dawley TRPV1 knockout rats. Nature of the data set: In vivo LAD ischemia-reperfusion injury model in TRPV1 knockout rats. On the set-up: species or system rat.
Data set [6] in a line: Peptide stability, trypsin digestion analyzed by RP-HPLC. It is filed as in vitro ADME. As to conditions: 20 minutes after exposure to trypsin; read-out: degraded. Here is the method:
FIG. 12: Determination of peptide stability. A. At baseline a single peak at 5 minutes was noted when V1-cal was analyzed by RP-HPLC (arrow in green). B. 10 minutes after trypsin digestion, V1-cal is still detected (arrow in green), yet is 75% degraded with the with multiple peaks detected as degradation products of V1-cal (black arrows). C. 20 minutes after exposure to trypsin, V1-cal is 100% degraded (with no peak at 5 minutes and multiple other peaks shown with black arrows detected).

Where [7] appears, read: 15 min Ischemia, capsaicin 0.1 mg/kg.
[8] abbreviates: 15 min Ischemia, capsaicin 0.3 mg/kg.
Setting [9] is: 15 min Ischemia, capsaicin 1.0 mg/kg.
Where [10] appears, read: 15 min Ischemia, capsaicin 3.0 mg/kg.
Where [11] appears, read: 2 hrs Reperfusion, capsaicin 0.1 mg/kg.
The mark [12] stands for this setting: 2 hrs Reperfusion, capsaicin 0.3 mg/kg.
Setting [13] is: 2 hrs Reperfusion, capsaicin 1.0 mg/kg.
Setting [14] is: 2 hrs Reperfusion, capsaicin 3.0 mg/kg.

Where two headings read alike, the source gives them in different places. Ends that are not written are not given here.

In the case of `COc1cc(CNC(=O)CCCC/C=C/C(C)C)ccc1O` [capsaicin], the HR in the data set on Sprague-Dawley rats [1] (15 min Ischemia) was determined as 377 ± 11 beats/min; in the data set with Sprague-Dawley rats [1] (2 hrs Reperfusion), 363 ± 9 beats/min; with Sprague-Dawley rats [1] (Baseline), 370 ± 6 beats/min; in the data set with Sprague-Dawley rats [3] (setting [7]), 373 ± 10 beats/min; with Sprague-Dawley rats [3] (setting [8]), 360 ± 21 beats/min; with Sprague-Dawley rats [3] (setting [9]), 385 ± 15 beats/min. The HR with Sprague-Dawley rats [3] (setting [10]) was found to be 420 ± 9 beats/min; in the data set on Sprague-Dawley rats [3] (setting [11]), 362 ± 6 beats/min; with Sprague-Dawley rats [3] (setting [12]), 368 ± 6 beats/min; in the data set with Sprague-Dawley rats [3] (setting [13]), 367 ± 3 beats/min; in the data set on Sprague-Dawley rats [3] (setting [14]) it was 370 ± 4 beats/min; in the data set on Sprague-Dawley rats [3] (Baseline, capsaicin 0.1 mg/kg), 377 ± 13 beats/min. In addition, the HR is reported as 370 ± 11 beats/min with Sprague-Dawley rats [3] (Baseline, capsaicin 0.3 mg/kg); 353 ± 11 beats/min with Sprague-Dawley rats [3] (Baseline, capsaicin 1.0 mg/kg); 357 ± 8 beats/min in the data set with Sprague-Dawley rats [3] (Baseline, capsaicin 3.0 mg/kg). Further, the MAP came out at 118 ± 10 mmHg in the data set on Sprague-Dawley rats [1] (15 min Ischemia); 87 ± 7 mmHg with Sprague-Dawley rats [1] (2 hrs Reperfusion); 134 ± 3 mmHg in the data set on Sprague-Dawley rats [1] (Baseline); 110 ± 7 mmHg with Sprague-Dawley rats [3] (setting [7]); 89 ± 14 mmHg in the data set with Sprague-Dawley rats [3] (setting [8]); 104 ± 10 mmHg in the data set with Sprague-Dawley rats [3] (setting [9]). The MAP with Sprague-Dawley rats [3] (setting [10]) was 113 ± 5 mmHg; in the data set with Sprague-Dawley rats [3] (setting [11]) it was 86 ± 5 mmHg; in the data set with Sprague-Dawley rats [3] (setting [12]), 85 ± 3 mmHg; with Sprague-Dawley rats [3] (setting [13]) it was 79 ± 3 mmHg; with Sprague-Dawley rats [3] (setting [14]), 72 ± 4 mmHg; in the data set on Sprague-Dawley rats [3] (Baseline, capsaicin 0.1 mg/kg), 128 ± 4 mmHg. Moreover, the MAP in the data set on Sprague-Dawley rats [3] (Baseline, capsaicin 0.3 mg/kg) was found to be 137 ± 7 mmHg; in the data set with Sprague-Dawley rats [3] (Baseline, capsaicin 1.0 mg/kg), 131 ± 6 mmHg; in the data set on Sprague-Dawley rats [3] (Baseline, capsaicin 3.0 mg/kg), 127 ± 4 mmHg. For the same compound, the RPP was determined as 51 ± 5 mmHg/1000 with Sprague-Dawley rats [1] (15 min Ischemia); 39 ± 3 mmHg/1000 in the data set on Sprague-Dawley rats [1] (2 hrs Reperfusion); 58 ± 2 mmHg/1000 in the data set on Sprague-Dawley rats [1] (Baseline); 47 ± 4 mmHg/1000 in the data set on Sprague-Dawley rats [3] (setting [7]); 40 ± 7 mmHg/1000 with Sprague-Dawley rats [3] (setting [8]); 46 ± 5 mmHg/1000 in the data set with Sprague-Dawley rats [3] (setting [9]). The RPP is 53 ± 3 mmHg/1000 in the data set on Sprague-Dawley rats [3] (setting [10]); 39 ± 2 mmHg/1000 in the data set on Sprague-Dawley rats [3] (setting [11]); 38 ± 2 mmHg/1000 in the data set with Sprague-Dawley rats [3] (setting [12]); 36 ± 2 mmHg/1000 in the data set on Sprague-Dawley rats [3] (setting [13]); 35 ± 2 mmHg/1000 with Sprague-Dawley rats [3] (setting [14]); 60 ± 5 mmHg/1000 in the data set with Sprague-Dawley rats [3] (Baseline, capsaicin 0.1 mg/kg). Besides, the RPP is 60 ± 5 mmHg/1000 with Sprague-Dawley rats [3] (Baseline, capsaicin 0.3 mg/kg); 55 ± 3 mmHg/1000 in the data set on Sprague-Dawley rats [3] (Baseline, capsaicin 1.0 mg/kg); 53 ± 2 mmHg/1000 with Sprague-Dawley rats [3] (Baseline, capsaicin 3.0 mg/kg). For the same compound, the myocardial infarct size in the data set with Sprague-Dawley rats [1] (given just prior to reperfusion, n=6/group, control 61±2%) was 45±1%; with Sprague-Dawley rats [3] (3.0 mg/kg), “failed to reduce myocardial infarct size”; with Sprague-Dawley rats [3] (0.1-1.0 mg/kg), “reduced myocardial infarct size”. Besides, the “infarct size reduction when compared to control” value in the data set on Sprague-Dawley rats [1] (single intravenous bolus 5 minutes prior to reperfusion) amounted to 27%. Moreover, the “mitochondrial membrane potential (TMRE)” value in data set [2] (0.1-10 μM, over 30 minutes) is “dose-dependently decreased mitochondrial membrane potential”. The LDH release entry with H9C2 cells (0.1 μM) is given as “reduced LDH release”. The “reduction of LDH release” value with H9C2 cells (1 and 10 μM) was “did not occur”. For the same compound, the “heart rate, isolated un-paced rat hearts” value in the data set with isolated rat hearts (capsaicin 0.1 μM versus vehicle (DMSO)) is recorded as “increased heart rate during the first 15 minutes of infusion”. Besides, the infarct size result in the data set with Sprague-Dawley rats [3] (0.1 mg/kg and 1.0 mg/kg) is “partial effects”; with Sprague-Dawley rats [3] (0.3 mg/kg), “maximally decreased infarct size”. Further, in the data set on Sprague-Dawley rats [3] (0.1-3.0 mg/kg intravenously), the “heart rate after intravenous administration” value is recorded as “dose-dependently increased heart rate”.

`Oc1cc2c(cc1O)CN(C(=S)NCCc1ccc(Cl)cc1)CCC2` [capsazepine]: in the data set with Sprague-Dawley rats [4] (3 mg/kg, internal jugular vein, 10 minutes before the incision), the “effect on incision-induced infarct size reduction” value is “blocked”. Further, in the data set on Sprague-Dawley rats [4] (15 min Ischemia), the “HR (heart rate)” value came out at 396 ± 10 beats/min, the “MAP (mean arterial pressure)” value was 115 ± 9 mmHg and the “RPP (rate pressure product)” value came to 52 ± 5 mmHg/1000. In the data set on Sprague-Dawley rats [4] (2 hrs Reperfusion), the “HR (heart rate)” value worked out at 374 ± 5 beats/min, the “MAP (mean arterial pressure)” value is recorded as 82 ± 3 mmHg and the “RPP (rate pressure product)” value came to 39 ± 1 mmHg/1000. In the data set with Sprague-Dawley rats [4] (Baseline), the “HR (heart rate)” value was found to be 384 ± 5 beats/min, the “MAP (mean arterial pressure)” value was 121 ± 4 mmHg and the “RPP (rate pressure product)” value amounted to 55 ± 2 mmHg/1000. The “infarct size, agent alone, compared to control” value in the data set on Sprague-Dawley rats [4] (capsazepine alone) is “no differences were noted for infarct size compared to the control group”. Besides, the “changes in mitochondrial membrane potential induced by capsaicin” value in data set [2] (treated 10 minutes prior to capsaicin) was “blocked”. Also, in the data set on Sprague-Dawley rats [3] (CPZ 3 mg/kg, CsA 2.5 mg/kg, 40 minutes prior to ischemia), the “infarct size sparing effect of capsaicin” value is “blocked the infarct size sparing effect of capsaicin”. In addition, the “change in heart rate afforded by capsaicin” value in the data set on Sprague-Dawley rats [3] (capsaicin 0.3 mg/kg, CPZ 3 mg/kg, CsA 2.5 mg/kg) is listed as “reduced the change in heart rate”.

Consider YGRKKRRQRRRGGAIIITILDTEIS [A5-cal], for which the “heart rate when infused” value with isolated rat hearts is “neither peptide had any effects on heart rate”.

With YGRKKRRQRRRGGRAITILDTEKS [V1-cal], the HR in the data set with Sprague-Dawley rats [1] (15 min Ischemia) came to 432 ± 10 beats/min; in the data set with Sprague-Dawley rats [1] (2 hrs Reperfusion), 389 ± 15 beats/min; in the data set with Sprague-Dawley rats [1] (Baseline), 428 ± 6 beats/min; in data set [5] (15 min Ischemia), 446 ± 13 beats/min; in data set [5] (Baseline), 439 ± 12 beats/min. The MAP with Sprague-Dawley rats [1] (15 min Ischemia) was determined as 110 ± 5 mmHg; in the data set with Sprague-Dawley rats [1] (2 hrs Reperfusion), 68 ± 5 mmHg; in the data set with Sprague-Dawley rats [1] (Baseline), 115 ± 5 mmHg; in data set [5] (15 min Ischemia), 114 ± 7 mmHg; in data set [5] (2 hrs Reperfusion), 84 ± 8 mmHg; in data set [5] (Baseline), 123 ± 6 mmHg. In addition, the RPP in the data set on Sprague-Dawley rats [1] (15 min Ischemia) is reported as 47 ± 3 mmHg/1000; in the data set with Sprague-Dawley rats [1] (2 hrs Reperfusion), 26 ± 3 mmHg/1000; with Sprague-Dawley rats [1] (Baseline), 49 ± 3 mmHg/1000; in data set [5] (15 min Ischemia), 56 ± 4 mmHg/1000; in data set [5] (2 hrs Reperfusion), 40 ± 4 mmHg/1000; in data set [5] (Baseline), 61 ± 4 mmHg/1000. Also, the results for the TIME in data set [5] (15 min Ischemia), in data set [5] (2 hrs Reperfusion) and in data set [5] (Baseline) were 37.1 ± 0.1, 37 ± 0.1 and 36.9 ± 0.2, respectively. In addition, the “heart rate when infused” value with isolated rat hearts is recorded as “neither peptide had any effects on heart rate”. Also, in data set [6], the metabolised at 20 min was determined as 100%.

(Values after patent publication US11136362B2, “Peptide modulators of specific calcineurin protein-protein interactions” (The Board of Trustees of the Leland Stanford Junior …, priority 2016, dated 2021).)
